# Measurements taken from patent US10112929B2, “Lactams as inhibitors of rock” (BRISTOL-MYERS SQUIBB COMPANY, priority 2015, dated 2018).
# Where a name gives a salt, the structure may show the parent alone.
# Biological target: T1, ROCK2 (Homo sapiens (Human), UniProt O75116)
# Test: not given
# 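Further: rho kinase enzyme reaction halted with EDTA, phospho- and non-phospho peptide separated for read-out, kinase activity inhibition derived across a dose-response series, DMSO under 2%.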
# T1 sequence (O75116 whole entry, species assumed): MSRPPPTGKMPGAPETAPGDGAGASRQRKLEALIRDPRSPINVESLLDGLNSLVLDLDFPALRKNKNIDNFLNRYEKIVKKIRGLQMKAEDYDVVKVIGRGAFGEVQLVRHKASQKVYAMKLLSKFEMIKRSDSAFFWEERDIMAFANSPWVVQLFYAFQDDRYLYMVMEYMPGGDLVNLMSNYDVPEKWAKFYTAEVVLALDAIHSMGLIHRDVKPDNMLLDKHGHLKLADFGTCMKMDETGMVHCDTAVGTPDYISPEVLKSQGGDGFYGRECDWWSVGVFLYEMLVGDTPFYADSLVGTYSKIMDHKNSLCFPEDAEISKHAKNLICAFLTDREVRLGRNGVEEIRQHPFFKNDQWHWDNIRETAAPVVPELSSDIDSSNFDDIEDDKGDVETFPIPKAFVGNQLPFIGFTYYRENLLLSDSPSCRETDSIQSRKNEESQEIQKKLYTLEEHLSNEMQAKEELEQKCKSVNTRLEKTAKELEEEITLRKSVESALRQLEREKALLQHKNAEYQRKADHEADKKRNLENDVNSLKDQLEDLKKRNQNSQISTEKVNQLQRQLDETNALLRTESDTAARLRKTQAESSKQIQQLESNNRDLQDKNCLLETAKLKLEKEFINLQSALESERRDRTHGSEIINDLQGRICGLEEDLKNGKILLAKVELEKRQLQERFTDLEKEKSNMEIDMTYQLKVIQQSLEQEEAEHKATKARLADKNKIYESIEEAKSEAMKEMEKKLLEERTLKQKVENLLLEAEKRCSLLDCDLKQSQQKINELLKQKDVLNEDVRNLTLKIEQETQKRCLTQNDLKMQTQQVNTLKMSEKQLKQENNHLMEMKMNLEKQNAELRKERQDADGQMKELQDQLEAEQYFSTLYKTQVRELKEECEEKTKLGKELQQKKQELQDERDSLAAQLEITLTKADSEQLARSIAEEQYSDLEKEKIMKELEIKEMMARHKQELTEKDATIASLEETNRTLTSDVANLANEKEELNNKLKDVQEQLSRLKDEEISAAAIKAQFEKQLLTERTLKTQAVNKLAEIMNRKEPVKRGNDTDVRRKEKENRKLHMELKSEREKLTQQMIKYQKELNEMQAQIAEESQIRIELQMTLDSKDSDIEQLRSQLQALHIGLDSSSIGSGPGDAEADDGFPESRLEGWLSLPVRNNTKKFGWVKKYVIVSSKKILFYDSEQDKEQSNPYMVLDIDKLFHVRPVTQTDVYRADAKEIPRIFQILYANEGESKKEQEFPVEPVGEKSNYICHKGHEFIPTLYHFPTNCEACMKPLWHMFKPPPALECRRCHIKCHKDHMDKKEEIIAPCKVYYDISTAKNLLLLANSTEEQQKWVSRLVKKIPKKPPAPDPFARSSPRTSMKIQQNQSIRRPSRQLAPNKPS
row,Compound,IC50 [nM]
1,"COc1ccc(F)c(NC2CCN(c3ccc(-c4cn[nH]c4)c(OC)c3)C2=O)c1 (single isomer, unassigned) [Example 149, 3-((2-fluoro-5-methoxyphenyl)amino)-1-(3-methoxy-4-(1H-pyrazol-4-yl)phenyl) pyrrolidin-2-one]",10 to 100
2,"COc1ccc(F)c(NC2CCN(c3ccc(-c4cn[nH]c4)cc3)C2=O)c1 (single isomer, unassigned) [Example 240, 1-(4-(1H-pyrazol-4-yl)phenyl)-3-((2-fluoro-5-methoxyphenyl)amino)pyrrolidin-2-one]",10 to 100
3,"COc1cc(F)cc(NC2CCN(c3ccc(-c4cn[nH]c4)c(OC)n3)C2=O)c1 (single isomer, unassigned) [Example 199, 3-((3-fluoro-5-methoxyphenyl)amino)-1-(6-methoxy-5-(1H-pyrazol-4-yl)pyridin-2 yl)pyrrolidin-2-one]",< 10
4,"COc1nc(N2CCC(Nc3cccc(OCC4CC4)c3)C2=O)ccc1-c1cn[nH]c1 (single isomer, unassigned) [Example 215, 3-((3-(cyclopropylmethoxy)phenyl)amino)-1-(6-methoxy-5-(1H-pyrazol-4-yl)pyridin-2-yl)pyrrolidin-2-one]",< 10
5,"COc1cc(F)cc(NC2CCN(c3ncc(-c4cn[nH]c4)cc3F)C2=O)c1 (single isomer, unassigned) [Example 360, 1-(3-fluoro-5-(1H-pyrazol-4-yl)pyridin-2-yl)-3-((3-fluoro-5-methoxyphenyl)amino) pyrrolidin-2-one]",100 to 2200
6,"Cc1nc(N2CCC(Nc3cccc(OC(F)F)c3)C2=O)ccc1-c1cn[nH]c1 (single isomer, unassigned) [Example 202, 3-((3-(difluoromethoxy)phenyl)amino)-1-(6-methyl-5-(1H-pyrazol-4-yl)pyridin-2-yl)pyrrolidin-2-one]",10 to 100
7,"COc1cc(F)cc(NC2CCN(c3ccc(-c4cn[nH]c4)c(F)c3)C2=O)c1 (single isomer, unassigned) [Example 50, 1-(3-fluoro-4-(1 H-pyrazol-4-yl)phenyl)-3-((3-fluoro-5-methoxyphenyl)amino)pyrrolidin-2-one]",< 10
8,"COc1cc(NC2CCN(c3ccc(-c4cn[nH]c4)c(OC(F)F)c3)C2=O)ccc1F (single isomer, unassigned) [Example 107, 1-[3-(difluoromethoxy)-4-(1H-pyrazol-4-yl)phenyl]-3-[(4-fluoro-3-methoxyphenyl)amino]pyrrolidin-2-one]",10 to 100
9,"COc1cccc(NC2CCN(c3ccc(-c4cn[nH]c4)cc3F)C2=O)c1 (single isomer, unassigned) [Example 329, 1-(2-fluoro-4-(1H-pyrazol-4-yl)phenyl)-3-((3-methoxyphenyl)amino)pyrrolidin-2-one]",10 to 100
10,"COc1cc(NC2CCN(c3ccc(-c4cn[nH]c4)c(C(F)(F)F)c3)C2=O)ccc1F (single isomer, unassigned) [Example 372, 1-(4-(1H-pyrazol-4-yl)-3-(trifluoromethyl)phenyl)-3-((4-fluoro-3-methoxyphenyl)amino)pyrrolidin-2-one]",100 to 2200
11,"COc1cc(NC2CCN(c3ccc(-c4cn[nH]c4)cc3F)C2=O)ccc1F (single isomer, unassigned) [Example 331, 3-((4-fluoro-3-methoxyphenyl)amino)-1-(2-fluoro-4-(1H-pyrazol-4-yl)phenyl) pyrrolidin-2-one]",10 to 100
12,"COc1cc(NC2CCN(c3ccc(-c4cn[nH]c4)c(C#N)c3)C2=O)ccc1F (single isomer, unassigned) [Example 380, 5-(3-((4-fluoro-3-methoxyphenyl)amino)-2-oxopyrrolidin-1-yl)-2-(1H-pyrazol-4-yl)benzonitrile]",100 to 2200
13,"COc1cc(NC2CCN(c3ccc(-c4cn[nH]c4)cn3)C2=O)ccc1F (single isomer, unassigned) [Example 84, 1-(5-(1H-pyrazol-4-yl)pyridin-2-yl)-3-((4-fluoro-3-methoxyphenyl)amino)pyrrolidin-2-one]",10 to 100
14,"COc1cc(F)cc(NC2CCN(c3ccc(-c4cn[nH]c4)cc3Cl)C2=O)c1 (single isomer, unassigned) [Example 169, 1-(2-chloro-4-(1H-pyrazol-4-yl)phenyl)-3 ((3-fluoro-5-methoxyphenyl)amino) pyrrolidin-2-one]",100 to 2200
15,"CCOc1cc(N2CCC(Nc3cc(OC)ccc3F)C2=O)ccc1-c1cn[nH]c1 (single isomer, unassigned) [Example 41, 1-(3-ethoxy-4-(1H-pyrazol-4-yl)phenyl)-3-((2-fluoro-5-methoxyphenyl)amino)pyrrolidin-2-one]",100 to 2200
16,"COc1ccc(NC2CCN(c3ccc(-c4cn[nH]c4)c(Cl)c3)C2=O)cc1F (single isomer, unassigned) [Example 157, 1-(3-chloro-4-(1H-pyrazol-4-yl)phenyl)-3 ((3-fluoro-4-methoxyphenyl)amino) pyrrolidin-2-one]",100 to 2200
17,"COc1ccc(NC2CCN(c3ccc(-c4cn[nH]c4)cc3)C2=O)c(F)c1 (single isomer, unassigned) [Example 20, 1-(4-(1H-pyrazol-4-yl)phenyl)-3-((2-fluoro-4-methoxyphenyl)amino)pyrrolidin-2-one]",100 to 2200
18,"COc1cccc(NC2CCN(c3ccc(-c4cn[nH]c4)cc3)C2=O)c1 (single isomer, unassigned) [Example 29, 1-(4-(1H-pyrazol-4-yl)phenyl)-3-((3-methoxyphenyl)amino)pyrrolidin-2-one]",< 10
19,"COc1cc(N2CCC(Nc3c(F)cccc3OC)C2=O)ccc1-c1cn[nH]c1 (single isomer, unassigned) [Example 136, 3-((2-fluoro-6-methoxyphenyl)amino)-1-(3-methoxy-4-(1H-pyrazol-4-yl)phenyl) pyrrolidin-2-one]",10 to 100
20,"CCc1cc(N2CCC(Nc3cccc(OC)c3)C2=O)ncc1-c1cn[nH]c1 (single isomer, unassigned) [Example 204, 1-(4-ethyl-5-(1H-pyrazol-4-yl)pyridin-2-yl)-3-((3-methoxyphenyl)amino) pyrrolidin-2-one]",100 to 2200
21,"COc1cc(NC2CCN(c3ccc(-c4cn[nH]c4)c(OC)n3)C2=O)ccc1F (single isomer, unassigned) [Example 208, 3-((4-fluoro-3-methoxyphenyl)amino)-1-(6-methoxy-5-(1H-pyrazol-4-yl)pyridin-2-yl)pyrrolidin-2-one]",< 10
22,"COc1cc(NC2CCN(c3ccc(-c4cn[nH]c4)c(F)c3F)C2=O)ccc1F (single isomer, unassigned) [Example 308, 1-(2,3-difluoro-4-(1H-pyrazol-4-yl)phenyl)-3-((4-fluoro-3-methoxyphenyl)amino)pyrrolidin-2-one]",10 to 100
23,"COc1cccc(NC2CCN(c3ccc(-c4ccnc(N)n4)cc3)C2=O)c1 (single isomer, unassigned) [Example 79, 1-(4-(2-aminopyrimidin-4-yl)phenyl)-3-((3-methoxyphenyl)amino)pyrrolidin-2-one]",10 to 100
24,"COc1cc(NC2CCN(c3ccc(-c4cn[nH]c4)c(C)n3)C2=O)ccc1F (single isomer, unassigned) [Example 195, 3-((4-fluoro-3-methoxyphenyl)amino)-1-(6-methyl-5-(1H-pyrazol-4-yl)pyridin-2-yl)pyrrolidin-2-one]",10 to 100
25,"COc1ccc(NC2CCN(c3ccc(-c4cn[nH]c4)cc3F)C2=O)cc1F (single isomer, unassigned) [Example 345, 1-(2-fluoro-4-(1H-pyrazol-4-yl)phenyl)-3-((3-fluoro-4-methoxyphenyl)amino) pyrrolidin-2-one]",100 to 2200

# Biological target: T1, ROCK2
# Test: biochemical
row,Compound,IC50 [nM]
1,"COc1nc(N2CCC(N3CCC(=O)CC3)C2=O)ccc1-c1cn[nH]c1 (racemic) [Example 292, 1-(1-(6-methoxy-5-(1H-pyrazol-4-yl)pyridin-2-yl)-2-oxopyrrolidin-3-yl)piperidin-4-one hydrochloridehydrate]",10 to 100
2,"COc1nc(N2CCC(N3CCOCC3)C2=O)ccc1-c1cn[nH]c1 (racemic) [Example 273, 1-(6-methoxy-5-(1H-pyrazol-4-yl)pyridin-2-yl)-3-morpholinopyrrolidin-2-one]",10 to 100
3,"O=C1C(NCc2ccccc2)CCN1c1ccc(-c2cn[nH]c2)cc1 (centres unmarked) [Example 57, 1-(4-(1H-pyrazol-4-yl)phenyl)-3-(benzylamino)pyrrolidin-2-one]",100 to 2200
4,"O=C1C(Cc2ccccc2F)CCN1c1ccc(-c2cn[nH]c2)cc1 (centres unmarked) [Example 96, 1-(4-(1H-pyrazol-4-yl)phenyl)-3-(2-fluorobenzyl)pyrrolidin-2-one]",10 to 100
5,"COc1nc(N2CCC(N3CCC(N(C)C)CC3)C2=O)ccc1-c1cn[nH]c1 (racemic) [Example 276, 3-(4-(dimethylamino)piperidin-1-yl)-1-(6-methoxy-5-(1H-pyrazol-4-yl)pyridin-2-yl)pyrrolidin-2-one]",100 to 2200
6,"CCc1cc(N2CCC(Nc3ccc(F)c(OC)c3)C2=O)ncc1-c1cn[nH]c1 (single isomer, unassigned) [Example 210, 1-(4-ethyl-5-(1H-pyrazol-4-yl)pyridin-2-yl)-3-((4-fluoro-3-methoxyphenyl)amino) pyrrolidin-2-one]",100 to 2200
7,"COc1cc(N2CCC(Nc3cccc(OC(C)C)c3)C2=O)ccc1-c1cn[nH]c1 (centres unmarked) [Example 71, 3-((3-isopropoxyphenyl)amino)-1-(3-methoxy-4-(1H-pyrazol-4-yl)phenyl)pyrrolidin-2-one, TFA]",10 to 100
8,"COc1cc(NC2CCN(c3ccc(-c4cn[nH]c4)c(C(F)F)c3)C2=O)ccc1F (single isomer, unassigned) [Example 179, 1-(3-(difluoromethyl)-4-(1H-pyrazol-4-yl)phenyl)-3-((4-fluoro-3-methoxyphenyl)amino)pyrrolidin-2-one]",10 to 100
9,"Nc1cccc(OC2CCN(c3ccc(-c4cn[nH]c4)cc3)C2=O)c1 (centres unmarked) [Example 113, 1-(4-(1H-pyrazol-4-yl)phenyl)-3-(3-aminophenoxy)pyrrolidin-2-one, TFA]",10 to 100
10,"COc1cccc(NC2CCN(c3ccc(-c4ccnc5[nH]ccc45)c(C)n3)C2=O)c1 (single isomer, unassigned) [Example 119, 3-((3-methoxyphenyl)amino)-1-(6-methyl-5-(1H-pyrrolo[2,3-b]pyridin-4-yl)pyridin-2-yl)pyrrolidin-2-one]",100 to 2200
